{"source": "paper PMC3228903", "about": "(The FEBS journal, 2011)", "key": {"WT MAO A": {"target": "WT MAO A", "settings": "cited from earlier work; for Ki: WT MAO A"}, "[1]": {"target": "T1, Ile199Ala/Tyr326Ala MAO B (Homo sapiens, UniProt P27338, I199A/Y326A)", "T1 sequence (P27338 1-520 I199A/Y326A)": "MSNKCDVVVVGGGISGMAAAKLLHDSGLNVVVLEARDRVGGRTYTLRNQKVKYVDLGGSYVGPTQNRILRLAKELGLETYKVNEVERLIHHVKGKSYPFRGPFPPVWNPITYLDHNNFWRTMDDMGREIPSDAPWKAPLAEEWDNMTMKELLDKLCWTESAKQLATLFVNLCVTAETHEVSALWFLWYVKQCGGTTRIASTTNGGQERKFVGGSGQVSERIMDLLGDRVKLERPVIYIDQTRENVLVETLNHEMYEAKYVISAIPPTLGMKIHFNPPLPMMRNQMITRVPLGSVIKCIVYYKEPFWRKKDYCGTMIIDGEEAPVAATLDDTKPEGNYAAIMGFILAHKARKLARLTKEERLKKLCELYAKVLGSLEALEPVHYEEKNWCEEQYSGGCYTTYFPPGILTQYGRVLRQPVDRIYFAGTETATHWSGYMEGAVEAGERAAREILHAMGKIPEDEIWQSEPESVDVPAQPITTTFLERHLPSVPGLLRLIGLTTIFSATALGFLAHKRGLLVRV", "test": "Steady-state substrate oxidation and pH dependence, Ile199Ala/Tyr326Ala MAO B", "assay_type": "biochemical"}, "Ile199Ala MAO B": {"target": "T2, Ile199Ala MAO B (Homo sapiens, UniProt P27338, I199A)", "T2 sequence (P27338 1-520 I199A)": "T1 sequence (P27338 1-520 I199A/Y326A) with A326Y", "test": "Steady-state substrate oxidation and pH dependence, Ile199Ala MAO B", "assay_type": "biochemical"}, "MAO B Ile199Ala": {"target": "T3, MAO B Ile199Ala (Homo sapiens, UniProt P27338, I199A)", "T3 sequence (P27338 1-520 I199A)": "T1 sequence (P27338 1-520 I199A/Y326A) with A326Y", "assay_type": "biochemical"}, "[2]": {"target": "T4, MAO B Ile199Ala-Tyr326Ala (Homo sapiens, UniProt P27338, I199A/Y326A)", "T4 sequence (P27338 1-520 I199A/Y326A)": "T1 sequence (P27338 1-520 I199A/Y326A)", "assay_type": "biochemical"}, "WT MAO B [3]": {"target": "T5, WT MAO B (Homo sapiens, UniProt P27338)", "T5 sequence (P27338 1-520)": "T1 sequence (P27338 1-520 I199A/Y326A) with A199I, A326Y", "settings": "pH 7.5; cited from earlier work"}, "WT MAO B [4]": {"target": "T5, WT MAO B", "test": "Inhibition of WT MAO B, Ki from initial rates of substrate oxidation", "assay_type": "biochemical"}, "WT MAO B [5]": {"target": "T5, WT MAO B", "test": "Steady-state substrate oxidation and pH dependence, WT MAO B", "assay_type": "biochemical", "settings": "pH 7.5"}, "[6]": {"settings": "Ki, Ile199Ala single mutant, pH 7.5"}, "[7]": {"settings": "Ile199Ala-Tyr326Ala double mutant"}, "[8]": {"settings": "Ile199Ala-Tyr326Ala double mutant, pH 9.3"}}, "note": "Positions count from the first letter of the chain named. Read-outs that look alike come from different tables or passages of the source."}
{"smiles": "N[C@@H]1C[C@H]1c1ccccc1", "note": "(racemic) [Tranylcypromine]", "values": [{"measurement": "Ki", "setting": "WT MAO A", "result": 19, "unit": "µM"}]}
{"smiles": "NCc1ccccc1", "note": "[Benzylamine, benzylamine]", "values": [{"measurement": "KM", "setting": "[1]; I199A-Y326A, pH 7.5", "result": "too high to measure"}, {"measurement": "2nd order rate", "setting": "[1]; I199A-Y326A, pH 7.5, no saturation", "result": "2nd order rate =: 0.0106 ±0.0002 μM^−1min^−1"}, {"measurement": "V/K extrapolated for fully deprotonated free enzyme, of WT activity", "setting": "[1]; double mutant", "result": "~ 5%"}, {"measurement": "V/K extrapolated for fully deprotonated free enzyme, of WT activity", "setting": "Ile199Ala MAO B; single mutant", "result": 42, "unit": "%"}]}
{"smiles": "C(=CCc1ccccc1)Cc1ccccc1", "note": "[DPB, 1,4-Diphenyl-2-butene]", "values": [{"measurement": "Ki", "setting": "MAO B Ile199Ala; [6]", "result": "8.1 ± 1.6", "unit": "µM"}, {"measurement": "binding / inhibition in words", "setting": "[2]; [7]", "result": "no detectable binding"}, {"measurement": "Ki", "setting": "[2]; [8]", "result": "no inhibition"}, {"measurement": "Ki", "setting": "WT MAO B [3]", "result": "34.5 ± 1.4", "unit": "µM"}]}
{"smiles": "C(C=Cc1ccccc1)=Cc1ccccc1", "note": "[DPBD, 1,4-Diphenyl-1,3-butadiene]", "values": [{"measurement": "Ki", "setting": "MAO B Ile199Ala", "result": "1 ± 0.03", "unit": "µM"}, {"measurement": "binding / inhibition in words", "setting": "[2]; [7]", "result": "no detectable binding"}, {"measurement": "Ki", "setting": "[2]; [8]", "result": "no inhibition"}, {"measurement": "Ki", "setting": "WT MAO B [3]", "result": "7 ± 0.2", "unit": "µM"}]}
{"smiles": "CC(C)=CCC/C(C)=C/CC/C(C)=C/CO", "note": "[Farnesol, trans,trans-farnesol]", "values": [{"measurement": "Ki", "setting": "MAO B Ile199Ala; [6]", "result": "2.7 ± 0.4", "unit": "µM"}, {"measurement": "Ki", "setting": "[2]", "result": "18 ± 3", "unit": "µM"}, {"measurement": "binding / inhibition in words", "setting": "[2]; [7]", "result": "weaker binding"}, {"measurement": "binding to human MAO A in words", "setting": "WT MAO A; previous work", "result": "do not bind"}]}
{"smiles": "Cc1nccc2c1[nH]c1ccccc12", "note": "[Harmane, harmane]", "values": [{"measurement": "Ki", "setting": "MAO B Ile199Ala", "result": "550 ± 50", "unit": "µM"}, {"measurement": "Ki", "setting": "[2]", "result": "165 ± 17", "unit": "µM"}, {"measurement": "Ki", "setting": "WT MAO B [4]", "result": "140 ± 47", "unit": "µM"}, {"measurement": "Ki", "setting": "WT MAO A", "result": "0.58 ± 0.02", "unit": "µM"}]}
{"smiles": "O=C1Nc2ccccc2C1=O", "note": "[Isatin]", "values": [{"measurement": "Ki", "setting": "WT MAO A", "result": 15, "unit": "µM"}]}
{"smiles": "CN(C)c1ccc2nc3ccc(=[N+](C)C)cc-3sc2c1", "note": "[Methylene Blue, methylene blue]", "values": [{"measurement": "binding / inhibition in words", "setting": "[2]; [7]", "result": "affinity higher than that observed with WT MAO B"}]}
{"smiles": "NCCCCc1ccccc1", "note": "[Phenylbutylamine, phenylbutylamine]", "values": [{"measurement": "Km", "setting": "[1]; I199A-Y326A, pH 7.5", "result": "55 ± 2", "unit": "µM"}, {"measurement": "kcat", "setting": "[1]; I199A-Y326A, pH 7.5", "result": "2.37 ± 0.017", "unit": "s⁻¹"}, {"measurement": "Km", "setting": "Ile199Ala MAO B; I199A, pH 7.5", "result": "8.9 ± 0.7", "unit": "µM"}, {"measurement": "kcat", "setting": "Ile199Ala MAO B; I199A, pH 7.5", "result": "2.25 ± 0.05", "unit": "s⁻¹"}, {"measurement": "Km", "setting": "WT MAO B [5]", "result": "19 ± 3", "unit": "µM"}, {"measurement": "kcat", "setting": "WT MAO B [5]", "result": "1.83 ± 0.083", "unit": "s⁻¹"}]}
{"smiles": "NCCc1ccccc1", "note": "[Phenylethylamine, Phenethylamine]", "values": [{"measurement": "KM value higher than WT enzyme", "setting": "[1]; double mutant, pH 7.5", "result": 75, "unit": "fold"}, {"measurement": "increase in KM relative to WT enzyme", "setting": "Ile199Ala MAO B; single mutant, pH 7.5", "result": 4, "unit": "fold"}]}
{"smiles": "Cc1ccc2c(c1)c1c3n2CCNC3CCC1", "note": "(stereo not shown) [Pirlindole, pirlindole]", "values": [{"measurement": "Ki", "setting": "MAO B Ile199Ala; Ile199Ala single mutant, pH 7.5", "result": "No inhibition"}, {"measurement": "Ki", "setting": "MAO B Ile199Ala; Ile199Ala single mutant, pH 7.5, listed as pirlindole", "result": "neither MAO B nor the Ile199Ala single mutant are inhibited"}, {"measurement": "Ki", "setting": "[2]", "result": "4.1 ± 0.2", "unit": "µM"}, {"measurement": "Ki", "setting": "WT MAO B [4]; WT MAO B, pH 7.5", "result": "No inhibition"}, {"measurement": "Ki", "setting": "WT MAO B [4]; WT MAO B, pH 7.5, listed as pirlindole", "result": "neither MAO B nor the Ile199Ala single mutant are inhibited"}, {"measurement": "Ki", "setting": "WT MAO A", "result": "0.92 ± 0.04", "unit": "µM"}]}
{"smiles": "C[C@H](NCc1ccc(OCc2cccc(F)c2)cc1)C(N)=O", "note": "[Safinamide]", "values": [{"measurement": "weaker affinity than WT MAO B", "setting": "[2]; double mutant relative to WT MAO B", "result": "~ 10 fold"}]}
{"smiles": "NC1CCc2ccccc21", "note": "(stereo not shown) [aminoindane]", "values": [{"measurement": "binding / inhibition in words", "setting": "[2]", "result": "Weak binding"}]}
{"smiles": "CNC1CCc2ccccc21", "note": "(stereo not shown) [methylaminoindane]", "values": [{"measurement": "binding / inhibition in words", "setting": "[2]", "result": "Weak binding"}]}
{"smiles": "NCc1ccc(C(F)(F)F)cc1", "note": "[p-CF3-benzylamine]", "values": [{"measurement": "V/K extrapolated for fully deprotonated free enzyme, of WT activity", "setting": "[1]; double mutant", "result": 24, "unit": "%"}, {"measurement": "V/K extrapolated for fully deprotonated free enzyme, of WT activity", "setting": "Ile199Ala MAO B; single mutant", "result": 33, "unit": "%"}]}
{"smiles": "NS(=O)(=O)Cc1noc2ccccc12", "note": "[zonisamide]", "values": [{"measurement": "binding / inhibition in words", "setting": "[2]; [7]", "result": "no detectable inhibition"}]}
